Laboratory results: patent publication US20250179066A1, “ZWITTERIONIC ANTIBACTERIAL COMPOUNDS” (Hoffmann-La Roche Inc., priority 2022, published 2025)
Where a name gives a salt, the structure may show the parent alone.

What follows are molecules tested on Acinetobacter baumannii ATCC17961 (assay: Antimicrobial susceptibility testing: 90% growth inhibitory concentration (IC90) determination). Details: Acinetobacter baumannii, ATCC17961, 16 h, 90% growth inhibitory concentration against Acinetobacter baumannii ATCC17961, Iso-Sensitest broth, OD 600 nm over 16 h; read-out: ATCC 17961 IC90.
Format: cell-based
Method in brief: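 Twofold serial dilutions (e.g. 10 to 0.0195 μM final) in Iso-Sensitest broth inoculated at ~5×10^5 CFU/mL, incubated at 35±2° C. OD600 read every minute for 16 h; IC90 is the concentration inhibiting 90% of growth during logarithmic phase.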

| IC90 [nM] | Structure (SMILES) |
| --- | --- |
| 185 | COCCNc1ccc(-n2cc(-c3cnc(C(=O)Nc4ccc(C(=O)N5CCN(C(=O)[C@H]6CC[N@+](CC(=O)O)(CC7CNC7)CC6)CC5)c(C)c4)n3C)c(C(F)(F)F)n2)c(F)c1 [Example 111, cis-2-[1-(azetidin-3-ylmethyl)-4-[4-[4-[[5-[1-[2-fluoro-4-(2-methoxyethylamino)phenyl]-3-(trifluoromethyl)pyrazol-4-yl]-1-methyl-imidazole-2-carbonyl]amino]-2-methyl-benzoyl]piperazine-1-carbonyl]piperidin-1-ium-1-yl]acetic acid;2,2,2-trifluoroacetate] |
| 356 | Cn1c(-c2cn(-c3cc4[nH]c(C(=O)N5C[C@H]6CNC[C@H]6C5)cc4cn3)nc2C(F)(F)F)cnc1C(=O)Nc1ccc(C(=O)N2CCN(C(=O)[C@H]3CC[N@+](CC(=O)O)(CC4CNC4)CC3)CC2)c(Cl)c1 [Example 112, cis-2-[4-[4-[4-[[5-[1-[2-[(3aS,6aR)-2,3,3a,4,6,6a-hexahydro-1H-pyrrolo[3,4-c]pyrrole-5-carbonyl]-1H-pyrrolo[3,2-c]pyridin-6-yl]-3-(trifluoromethyl)pyrazol-4-yl]-1-methyl-imidazole-2-carbonyl]amino]-2-chloro-benzoyl]piperazine-1-carbonyl]-1-(azetidin-3-ylmethyl)piperidin-1-ium-1-yl]acetic acid. 1:1 2,2,2-trifluoroacetate] |
| 707 | Cn1c(-c2cn(-c3cc4[nH]c(C(=O)N5CC6(CCOCC6)C5)cc4cn3)nc2C(F)(F)F)cnc1C(=O)Nc1ccc(C(=O)N2CCN(C(=O)[C@H]3CC[N@+](CC(=O)O)(CC4CNC4)CC3)CC2)c(Cl)c1 [Example 113, cis-2-[1-(azetidin-3-ylmethyl)-4-[4-[2-chloro-4-[[1-methyl-5-[1-[2-(7-oxa-2-azaspiro[3.5]nonane-2-carbonyl)-1H-pyrrolo[3,2-c]pyridin-6-yl]-3-(trifluoromethyl)pyrazol-4-yl]imidazole-2-carbonyl]amino]benzoyl]piperazine-1-carbonyl]piperidin-1-ium-1-yl]acetic acid. 1:1 2,2,2-trifluoroacetate] |
| 637 | Cn1c(-c2cn(-c3cc4[nH]c(C(=O)N5CCS(=N)(=O)CC5)cc4cn3)nc2C(F)(F)F)cnc1C(=O)Nc1ccc(C(=O)N2CCN(C(=O)[C@H]3CC[N@+](CC(=O)O)(CC4CNC4)CC3)CC2)c(Cl)c1 [Example 114, cis-2-[1-(azetidin-3-ylmethyl)-4-[4-[2-chloro-4-[[5-[1-[2-(1-imino-1-keto-1,4-thiazinane-4-carbonyl)-1H-pyrrolo[3,2-c]pyridin-6-yl]-3-(trifluoromethyl)pyrazol-4-yl]-1-methyl-imidazole-2-carbonyl]amino]benzoyl]piperazine-1-carbonyl]piperidin-1-ium-1-yl]acetic acid. 1:1 2,2,2-trifluoroacetate] |
| 295 | Cn1c(-c2cn(-c3cc4[nH]c(C(=O)NCCO)cc4cn3)nc2C(F)(F)F)cnc1C(=O)Nc1ccc(C(=O)N2CCN(C(=O)[C@H]3CC[N@+](CC(=O)O)(CC4CNC4)CC3)CC2)c(Cl)c1 [Example 115, cis-2-[1-(azetidin-3-ylmethyl)-4-[4-[2-chloro-4-[[5-[1-[2-(2-hydroxyethylcarbamoyl)-1H-pyrrolo[3,2-c]pyridin-6-yl]-3-(trifluoromethyl)pyrazol-4-yl]-1-methyl-imidazole-2-carbonyl]amino]benzoyl]piperazine-1-carbonyl]piperidin-1-ium-1-yl]acetic acid. 1:1 2,2,2-trifluoroacetate] |
| 213 | Cn1c(-c2cn(-c3cc4[nH]c(C(=O)N5CC6CNCC(C5)O6)cc4cn3)nc2C(F)(F)F)cnc1C(=O)Nc1ccc(C(=O)N2CCN(C(=O)[C@H]3CC[N@+](CC(=O)O)(CC4CNC4)CC3)CC2)c(Cl)c1 [Example 116, cis-2-[1-(azetidin-3-ylmethyl)-4-[4-[2-chloro-4-[[1-methyl-5-[1-[2-(9-oxa-3,7-diazabicyclo[3.3.1]nonane-3-carbonyl)-1H-pyrrolo[3,2-c]pyridin-6-yl]-3-(trifluoromethyl)pyrazol-4-yl]imidazole-2-carbonyl]amino]benzoyl]piperazine-1-carbonyl]piperidin-1-ium-1-yl]acetic acid. 1:1 2,2,2-trifluoroacetic acid. 1:1 2,2,2-trifluoroacetate] |
| 215 | Cn1c(-c2cn(-c3cc4[nH]c(C(=O)NCC(O)C(F)(F)F)cc4cn3)nc2C(F)(F)F)cnc1C(=O)Nc1ccc(C(=O)N2CCN(C(=O)[C@H]3CC[N@+](CC(=O)O)(CC4CNC4)CC3)CC2)c(Cl)c1 (stereo partly drawn) [Example 117, cis-2-[1-(azetidin-3-ylmethyl)-4-[4-[2-chloro-4-[[1-methyl-5-[1-[2-[(3,3,3-trifluoro-2-hydroxy-propyl)carbamoyl]-1H-pyrrolo[3,2-c]pyridin-6-yl]-3-(trifluoromethyl)pyrazol-4-yl]imidazole-2-carbonyl]amino]benzoyl]piperazine-1-carbonyl]piperidin-1-ium-1-yl]acetic acid. 1:1 2,2,2-trifluoroacetate] |
| 213 | Cn1c(-c2cn(-c3cc4[nH]c(C(=O)N5CCNCC5)cc4cn3)nc2C(F)(F)F)cnc1C(=O)Nc1ccc(C(=O)N2CCN(C(=O)[C@H]3CC[N@+](CC(=O)O)(CC4CNC4)CC3)CC2)c(Cl)c1 [Example 118, cis-2-[1-(azetidin-3-ylmethyl)-4-[4-[2-chloro-4-[[1-methyl-5-[1-[2-(piperazine-1-carbonyl)-1H-pyrrolo[3,2-c]pyridin-6-yl]-3-(trifluoromethyl)pyrazol-4-yl]imidazole-2-carbonyl]amino]benzoyl]piperazine-1-carbonyl]piperidin-1-ium-1-yl]acetic acid. 1:1 2,2,2-trifluoroacetate] |
| 236 | Cn1c(-c2cn(-c3cc4[nH]c(C(=O)N5CCOC(F)(F)C5)cc4cn3)nc2C(F)(F)F)cnc1C(=O)Nc1ccc(C(=O)N2CCN(C(=O)[C@H]3CC[N@+](CC(=O)O)(CC4CNC4)CC3)CC2)c(Cl)c1 [Example 119, cis-2-[1-(azetidin-3-ylmethyl)-4-[4-[2-chloro-4-[[5-[1-[2-(2,2-difluoromorpholine-4-carbonyl)-1H-pyrrolo[3,2-c]pyridin-6-yl]-3-(trifluoromethyl)pyrazol-4-yl]-1-methyl-imidazole-2-carbonyl]amino]benzoyl]piperazine-1-carbonyl]piperidin-1-ium-1-yl]acetic acid. 1:1 2,2,2-trifluoroacetate] |
| 527 | Cn1c(-c2cn(-c3cc4[nH]c(C(=O)NC5CCNC5=O)cc4cn3)nc2C(F)(F)F)cnc1C(=O)Nc1ccc(C(=O)N2CCN(C(=O)[C@H]3CC[N@+](CC(=O)O)(CC4CNC4)CC3)CC2)c(Cl)c1 (stereo partly drawn) [Example 120, cis-2-[1-(azetidin-3-ylmethyl)-4-[4-[2-chloro-4-[[5-[1-[2-[(2-ketopyrrolidin-3-yl)carbamoyl]-1H-pyrrolo[3,2-c]pyridin-6-yl]-3-(trifluoromethyl)pyrazol-4-yl]-1-methyl-imidazole-2-carbonyl]amino]benzoyl]piperazine-1-carbonyl]piperidin-1-ium-1-yl]acetic acid. 1:1 2,2,2-trifluoroacetate] |
| 375 | Cn1c(-c2cn(-c3cc4[nH]c(C(=O)N5CCO[C@]6(CCOC6)C5)cc4cn3)nc2C(F)(F)F)cnc1C(=O)Nc1ccc(C(=O)N2CCN(C(=O)[C@H]3CC[N@+](CC(=O)O)(CC4CNC4)CC3)CC2)c(Cl)c1 [Example 121, cis-2-[1-(azetidin-3-ylmethyl)-4-[4-[2-chloro-4-[[5-[1-[2-[(5R)-2,6-dioxa-9-azaspiro[4.5]decane-9-carbonyl]-1H-pyrrolo[3,2-c]pyridin-6-yl]-3-(trifluoromethyl)pyrazol-4-yl]-1-methyl-imidazole-2-carbonyl]amino]benzoyl]piperazine-1-carbonyl]piperidin-1-ium-1-yl]acetic acid. 1:1 2,2,2-trifluoroacetate] |
| 235 | Cn1c(-c2cn(-c3cc4[nH]c(C(=O)N5CCSCC5)cc4cn3)nc2C(F)(F)F)cnc1C(=O)Nc1ccc(C(=O)N2CCN(C(=O)[C@H]3CC[N@+](CC(=O)O)(CC4CNC4)CC3)CC2)c(Cl)c1 [Example 122, cis-2-[1-(azetidin-3-ylmethyl)-4-[4-[2-chloro-4-[[1-methyl-5-[1-[2-(thiomorpholine-4-carbonyl)-1H-pyrrolo[3,2-c]pyridin-6-yl]-3-(trifluoromethyl)pyrazol-4-yl]imidazole-2-carbonyl]amino]benzoyl]piperazine-1-carbonyl]piperidin-1-ium-1-yl]acetic acid. 1:1 2,2,2-trifluoroacetate] |
| 216 | CN(C)C(=O)c1cc2cnc(-n3cc(-c4cnc(C(=O)Nc5ccc(C(=O)N6CCN(C(=O)[C@H]7CC[N@+](CC(=O)O)(CC8CNC8)CC7)CC6)c(Cl)c5)n4C)c(C(F)(F)F)n3)cc2[nH]1 [Example 123, cis-2-[1-(azetidin-3-ylmethyl)-4-[4-[2-chloro-4-[[5-[1-[2-(dimethylcarbamoyl)-1H-pyrrolo[3,2-c]pyridin-6-yl]-3-(trifluoromethyl)pyrazol-4-yl]-1-methyl-imidazole-2-carbonyl]amino]benzoyl]piperazine-1-carbonyl]piperidin-1-ium-1-yl]acetic acid. 1:1 2,2,2-trifluoroacetate] |
| 103 | COCCNc1ccc(-n2cc(-c3cnc(C(=O)Nc4ccc(C(=O)N5CCN(C(=O)[C@H]6CC[N@+](CC(=O)O)(CC7CNC7)CC6)CC5)c(F)c4)n3C)c(C(F)(F)F)n2)c(F)c1 [Example 124, cis-2-[1-(azetidin-3-ylmethyl)-4-[4-[2-fluoro-4-[[5-[1-[2-fluoro-4-(2-methoxyethylamino)phenyl]-3-(trifluoromethyl)pyrazol-4-yl]-1-methyl-imidazole-2-carbonyl]amino]benzoyl]piperazine-1-carbonyl]piperidin-1-ium-1-yl]acetic acid; formate] |
